PMC10354740 (Journal of medicinal chemistry, 2022)
Values after ≈ are worked out from the molar mass of the structure shown. Where two headings read alike, the source gives them in different places. Each block holds one compound with its values, some of them ahead of it.

Key:
[1] = molecular target: T1, hA3AR (Homo sapiens, UniProt P0DMS8); conditions: modulator 0.1 μM; cited from earlier work
T1 sequence (P0DMS8 1-318): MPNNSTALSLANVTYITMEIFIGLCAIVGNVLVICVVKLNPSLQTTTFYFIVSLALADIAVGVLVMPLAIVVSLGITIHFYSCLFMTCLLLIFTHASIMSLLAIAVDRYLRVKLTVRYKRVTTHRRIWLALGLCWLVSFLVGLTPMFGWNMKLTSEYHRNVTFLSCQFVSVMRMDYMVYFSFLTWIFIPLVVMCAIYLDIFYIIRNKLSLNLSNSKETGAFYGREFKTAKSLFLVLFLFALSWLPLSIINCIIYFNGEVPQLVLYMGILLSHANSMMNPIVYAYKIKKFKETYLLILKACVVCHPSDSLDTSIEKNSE

[2] = molecular target: T1, hA3AR; conditions: for enhancement of agonist efficacy at 0.1 μM: modulator 0.1 μM; for effect on agonist 52 potency: modulator 1 μM (30–34: 0.1 and 1.0 μM), compared to control
[3] = molecular target: T1, hA3AR; conditions: modulator 10 μM; 100 μM 51 added; control 26%
[4] = molecular target: T2, hA2B AR (Homo sapiens, UniProt P29275); assay: Orthosteric antagonist radioligand binding; conditions: concentrations as high as 10 μM
T2 sequence (P29275 1-332): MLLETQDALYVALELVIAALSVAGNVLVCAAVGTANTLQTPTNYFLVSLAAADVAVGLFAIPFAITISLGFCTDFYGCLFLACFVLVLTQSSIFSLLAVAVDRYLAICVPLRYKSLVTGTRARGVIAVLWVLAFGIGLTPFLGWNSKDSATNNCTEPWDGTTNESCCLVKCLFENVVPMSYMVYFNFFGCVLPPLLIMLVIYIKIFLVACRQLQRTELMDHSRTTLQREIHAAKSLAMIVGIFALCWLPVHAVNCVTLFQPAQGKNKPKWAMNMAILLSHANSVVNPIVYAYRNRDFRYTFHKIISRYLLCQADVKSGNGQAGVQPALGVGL

[5] = molecular target: hA2A AR (Homo sapiens, UniProt P29274); assay: Orthosteric antagonist radioligand binding; conditions: concentrations as high as 10 μM
[6] = molecular target: T3, hA1 AR (Homo sapiens, UniProt P30542); assay: Orthosteric antagonist radioligand binding; conditions: concentrations as high as 10 μM
T3 sequence (P30542 1-326): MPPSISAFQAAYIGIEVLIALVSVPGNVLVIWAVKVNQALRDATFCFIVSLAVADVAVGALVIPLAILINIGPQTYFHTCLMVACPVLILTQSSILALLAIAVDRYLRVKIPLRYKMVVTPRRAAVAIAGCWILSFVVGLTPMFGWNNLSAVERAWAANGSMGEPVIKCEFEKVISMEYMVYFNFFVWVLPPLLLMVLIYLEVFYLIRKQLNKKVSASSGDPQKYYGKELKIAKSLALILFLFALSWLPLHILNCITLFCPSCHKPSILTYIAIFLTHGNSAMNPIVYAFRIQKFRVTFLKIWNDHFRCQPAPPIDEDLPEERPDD

[7] = tested on: Caco-2 cells; assay: Caco-2 cell permeability assay; format: in vitro ADME, human
[8] = Pharmacokinetics in fasted Wistar rats; format: in vivo; conditions: rat
[9] = pION aqueous solubility pH 7.4; format: physicochemical; conditions: pION buffer
[10] = molecular target: CYP2C9 (Homo sapiens, UniProt P11712); assay: CYP inhibition
[11] = Plasma protein binding, human; conditions: pH 7.4

Sequence of hA2A AR (P29274 whole entry): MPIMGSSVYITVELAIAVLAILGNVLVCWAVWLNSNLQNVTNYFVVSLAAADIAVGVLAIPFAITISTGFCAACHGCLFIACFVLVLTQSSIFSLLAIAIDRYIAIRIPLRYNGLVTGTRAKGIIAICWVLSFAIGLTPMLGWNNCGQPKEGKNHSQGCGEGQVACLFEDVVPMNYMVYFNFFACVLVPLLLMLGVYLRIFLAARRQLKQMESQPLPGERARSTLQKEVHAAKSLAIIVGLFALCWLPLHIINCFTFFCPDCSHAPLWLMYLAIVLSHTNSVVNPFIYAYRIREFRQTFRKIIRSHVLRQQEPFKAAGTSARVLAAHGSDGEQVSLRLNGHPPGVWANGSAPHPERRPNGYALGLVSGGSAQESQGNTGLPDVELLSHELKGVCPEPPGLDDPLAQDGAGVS
Sequence of CYP2C9 (P11712 whole entry): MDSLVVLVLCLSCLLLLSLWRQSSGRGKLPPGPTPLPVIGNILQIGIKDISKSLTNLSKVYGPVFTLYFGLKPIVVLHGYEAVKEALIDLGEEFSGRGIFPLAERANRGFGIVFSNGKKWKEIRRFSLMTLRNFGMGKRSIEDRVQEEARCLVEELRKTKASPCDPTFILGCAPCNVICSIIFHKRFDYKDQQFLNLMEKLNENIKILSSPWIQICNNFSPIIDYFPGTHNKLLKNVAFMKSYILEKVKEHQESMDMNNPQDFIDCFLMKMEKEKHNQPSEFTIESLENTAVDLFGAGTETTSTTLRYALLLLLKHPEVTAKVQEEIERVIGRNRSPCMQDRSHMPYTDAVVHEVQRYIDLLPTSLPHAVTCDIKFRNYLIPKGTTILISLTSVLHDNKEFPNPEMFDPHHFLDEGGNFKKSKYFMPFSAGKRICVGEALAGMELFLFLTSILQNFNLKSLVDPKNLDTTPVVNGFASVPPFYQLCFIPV

Structure (SMILES): Clc1ccc(Nc2nc3ccccc3c3nc(C4CCCCC4)[nH]c23)cc1Cl [Compound 7, N-(3,4-dichloro-phenyl)-2-cyclohexyl-1H-imidazo[4,5-c]quinolin-4-amine]
enhancement of agonist efficacy at 0.1 μM [1]: significantly enhanced agonist efficacy

Structure (SMILES): Clc1ccc(Nc2nc3ccccc3c3[nH]c(C4CCCCCC4)nc23)cc1Cl [Compound 8]
enhancement of agonist efficacy at 0.1 μM [1]: significantly enhanced agonist efficacy

Structure (SMILES): Clc1ccc(Nc2nc3ccccc3c3[nH]c(C45CC6CC(CC(C6)C4)C5)nc23)cc1Cl [Compound 12b]
enhancement of agonist efficacy at 0.1 μM [2]: significantly enhanced agonist efficacy
fold increase of agonist efficacy ([2]; modulator 1 μM): approximately 2 fold
fold improvement of agonist potency ([2]; modulator 1.0 μM, P = 0.058): ~4 fold

Structure (SMILES): FC(F)(F)CCC(CCC(F)(F)F)c1nc2c(Nc3ccc(Cl)c(Cl)c3)nc3ccccc3c2[nH]1 [Compound 15, 2-(1,1,1,7,7,7-Hexafluoroheptan-4-yl)-N-(3,4-dichlorophenyl)-1H-imidazo[4,5-c]quinolin-4-amine]
radioligand [125I]50 remaining bound 60 min after initiation of dissociation [3]: did not slow agonist dissociation
effect on agonist 52 potency [2]: did not influence agonist potency

Structure (SMILES): FC(F)(F)[C@H]1CC[C@H](c2nc3c(Nc4ccc(Cl)c(Cl)c4)nc4ccccc4c3[nH]2)CC1 [Compound 16, 2-(4-(Trifluoromethyl)cyclohexyl)-N-(3,4-dichlorophenyl)-1H-imidazo[4,5-c]quinolin-4-amine]
enhancement of agonist efficacy at 0.1 μM [2]: significantly enhanced agonist efficacy
effect on agonist 52 potency [2]: did not influence agonist potency

Structure (SMILES): Clc1ccc(Nc2nc3ccccc3c3[nH]c(C4CC4)nc23)cc1Cl [Compound 17, 2-(Cyclopropyl)-N-(3,4-dichlorophenyl)-1H-imidazo[4,5-c]quinolin-4-amine]
inhibition of orthosteric antagonist binding at hA2B AR [4]: did not inhibit orthosteric antagonist binding
inhibition of orthosteric antagonist binding at hA2A AR [5]: did not inhibit orthosteric antagonist binding
inhibition of orthosteric antagonist binding at hA1 AR [6]: did not inhibit orthosteric antagonist binding

Caco-2 permeability (Papp) apical to basolateral (A to B) ([7]; 10 μM): no measurable permeability
Caco-2 permeability (Papp) basolateral to apical (B to A) ([7]; 10 μM): no measurable permeability
Caco-2 permeability classification ([7]; A-B and B-A): low A-B and B-A permeability
Cmax ([8]; male, Wistar (RccHan:WIST), plasma, po, 10 mg/kg): 4.2 µM
clearance rate from plasma ([8]; 1 mg/kg p.o.): 7.45 mL/min/kg
clearance rate from plasma ([8]; 3 mg/kg p.o.): 26.33 mL/min/kg
clearance rate from plasma ([8]; 10 mg/kg p.o.): 16.2 mL/min/kg
solubility at 18 h [9]: 0.92 µM (≈ 0.389 µg/mL)
Structure (SMILES): Clc1ccc(Nc2nc3ccccc3c3[nH]c(C4CCC=CCC4)nc23)cc1Cl [Compound 18, 2-(Cyclohept-4-en-1-yl)-N-(3,4-dichlorophenyl)-1H-imidazo[4,5-c]quinolin-4-amine]

Structure (SMILES): Clc1ccc(Nc2nc3ccccc3c3[nH]c(C45CCC(CC4)C5)nc23)cc1Cl [Compound 25, 2-(Bicyclo[2.2.1]heptan-1-yl)-N-(3,4-dichlorophenyl)-1H-imidazo[4,5-c]quinolin-4-amine]
fold decrease in agonist potency compared to control ([2]; modulator 1 μM, P = 0.0257): 4 fold

Structure (SMILES): Clc1ccc(Nc2nc3ccccc3c3[nH]c(C45CCCC(CCC4)C5)nc23)cc1Cl [Compound 26, 2-(Bicyclo[3.3.1]nonan-1-yl)-N-(3,4-dichlorophenyl)-1H-imidazo[4,5-c]quinolin-4-amine]
effect on agonist 52 potency [2]: neither 12b nor 26 significantly improved agonist potency

enhancement of agonist efficacy at 0.1 μM [2]: significantly enhanced agonist efficacy
Structure (SMILES): Clc1ccc(Nc2nc3ccccc3c3[nH]c([C@@H]4C[C@@H]5CCC[C@@H](C5)C4)nc23)cc1Cl [Compound 27, 2-((1R,3s,5S)-Bicyclo[3.3.1]nonan-3-yl)-N-(3,4-dichlorophenyl)-1H-imidazo[4,5-c]quinolin-4-amine]

Structure (SMILES): Clc1ccc(Nc2nc3ccccc3c3[nH]c([C@@H]4CC[C@@H]5C[C@@H]5CC4)nc23)cc1Cl [Compound 28, 2-((1R,4r,7S)-bicyclo[5.1.0]octan-4-yl)-N-(3,4-dichlorophenyl)-1H-imidazo[4,5-c]quinolin-4-amine]
radioligand [125I]50 remaining bound 60 min after initiation of dissociation [3]: slowed agonist radioligand dissociation
fold increase of agonist efficacy ([2]; modulator 1 μM): approximately 2 fold

Structure (SMILES): Clc1ccc(Nc2nc3ccccc3c3[nH]c(C4CC5C=CC4CC5)nc23)cc1Cl [Compound 29, 2-((1R,2R,4R)- and (1S,2S,4S))-Bicyclo[2.2.2]oct-5-en-2-yl)-N-(3,4-dichlorophenyl)-1H-imidazo[4,5-c]quinolin-4-amine]
effect on agonist EC50 over modulator concentrations ([2]; concentration-dependent): significantly decreasing the potency in a concentration-dependent manner
effect on agonist 52 potency [2]: did not influence agonist potency

Structure (SMILES): Clc1ccc(COC(Cn2ccnc2)c2ccc(Cl)cc2Cl)c(Cl)c1 (centres unmarked) [Miconazole]
IC50 [10]: 380 nM

fraction unbound at 5 h, 10 μM [11]: 0.037
Structure (SMILES): CC(=O)CC(c1ccccc1)c1c(O)c2ccccc2oc1=O (centres unmarked) [Warfarin]
